PubChem BioAssay AID1259407 (Chemical Carcinogenesis Research Information System (CCRIS), 2018)
The source made the active and inactive calls. No rule for the calls is given here.

System: CCRIS mutagenicity, Ames/micronucleus/aberration tests
Test: CCRIS mutagenicity studies
[1] = Test System: AMES SALMONELLA TYPHIMURIUM, Strain/Indicator: TA98, Metabolic Activation: NONE, Method: STANDARD PLATE
[2] = Test System: AMES SALMONELLA TYPHIMURIUM, Strain/Indicator: TA98, Metabolic Activation: RAT, LIVER, S-9, AROCLOR 1254, Method: STANDARD PLATE
[3] = Test System: AMES SALMONELLA TYPHIMURIUM, Strain/Indicator: TA100, Metabolic Activation: RAT, LIVER, S-9, AROCLOR 1254, Method: STANDARD PLATE
[4] = Test System: AMES SALMONELLA TYPHIMURIUM, Strain/Indicator: TA1535, Metabolic Activation: NONE, Method: STANDARD PLATE
[5] = Test System: AMES SALMONELLA TYPHIMURIUM, Strain/Indicator: TA1535, Metabolic Activation: RAT, LIVER, S-9, AROCLOR 1254, Method: STANDARD PLATE
[6] = Test System: AMES SALMONELLA TYPHIMURIUM, Strain/Indicator: TA1537, Metabolic Activation: NONE, Method: STANDARD PLATE
[7] = Test System: AMES SALMONELLA TYPHIMURIUM, Strain/Indicator: TA1537, Metabolic Activation: RAT, LIVER, S-9, AROCLOR 1254, Method: STANDARD PLATE
[8] = Test System: AMES SALMONELLA TYPHIMURIUM, Strain/Indicator: TA1538, Metabolic Activation: NONE, Method: STANDARD PLATE
[9] = Test System: AMES SALMONELLA TYPHIMURIUM, Strain/Indicator: TA1538, Metabolic Activation: RAT, LIVER, S-9, AROCLOR 1254, Method: STANDARD PLATE

Measured: mutagenic call

Cc1ccccc1Cl
inactive: Test System: AMES SALMONELLA TYPHIMURIUM, Strain/Indicator: TA98, Metabolic Activation: HAMSTER, LIVER, S-9, AROCLOR 1254, Method: STANDARD PLATE inactive; negative | Test System: AMES SALMONELLA TYPHIMURIUM, Strain/Indicator: TA98, Metabolic Activation: NONE, Method: PREINCUBATION inactive; negative | [1] inactive; negative | Test System: AMES SALMONELLA TYPHIMURIUM, Strain/Indicator: TA98, Metabolic Activation: RAT LIVER S-9, PHENOBARBITAL AND BETA-NAPHTHOFLAVONE, Method: PREINCUBATION inactive; negative | [2] inactive; negative | Test System: AMES SALMONELLA TYPHIMURIUM, Strain/Indicator: TA100, Metabolic Activation: HAMSTER, LIVER, S-9, AROCLOR 1254, Method: STANDARD PLATE inactive; negative | Test System: AMES SALMONELLA TYPHIMURIUM, Strain/Indicator: TA100, Metabolic Activation: NONE, Method: PREINCUBATION inactive; negative | Test System: AMES SALMONELLA TYPHIMURIUM, Strain/Indicator: TA100, Metabolic Activation: NONE, Method: STANDARD PLATE inactive; negative | Test System: AMES SALMONELLA TYPHIMURIUM, Strain/Indicator: TA100, Metabolic Activation: RAT LIVER S-9, PHENOBARBITAL AND BETA-NAPHTHOFLAVONE, Method: PREINCUBATION inactive; negative | [3] inactive; negative | Test System: AMES SALMONELLA TYPHIMURIUM, Strain/Indicator: TA102, Metabolic Activation: NONE, Method: PREINCUBATION inactive; negative | Test System: AMES SALMONELLA TYPHIMURIUM, Strain/Indicator: TA102, Metabolic Activation: RAT LIVER S-9, PHENOBARBITAL AND BETA-NAPHTHOFLAVONE, Method: PREINCUBATION inactive; negative | Test System: AMES SALMONELLA TYPHIMURIUM, Strain/Indicator: TA104, Metabolic Activation: NONE, Method: PREINCUBATION inactive; negative | Test System: AMES SALMONELLA TYPHIMURIUM, Strain/Indicator: TA104, Metabolic Activation: RAT LIVER S-9, PHENOBARBITAL AND BETA-NAPHTHOFLAVONE, Method: PREINCUBATION inactive; negative | Test System: AMES SALMONELLA TYPHIMURIUM, Strain/Indicator: TA1535, Metabolic Activation: HAMSTER, LIVER, S-9, AROCLOR 1254, Method: STANDARD PLATE inactive; negative | Test System: AMES SALMONELLA TYPHIMURIUM, Strain/Indicator: TA1535, Metabolic Activation: NONE, Method: PREINCUBATION inactive; negative | [4] inactive; negative | Test System: AMES SALMONELLA TYPHIMURIUM, Strain/Indicator: TA1535, Metabolic Activation: RAT LIVER S-9, PHENOBARBITAL AND BETA-NAPHTHOFLAVONE, Method: PREINCUBATION inactive; negative | [5] inactive; negative | Test System: AMES SALMONELLA TYPHIMURIUM, Strain/Indicator: TA1537, Metabolic Activation: HAMSTER, LIVER, S-9, AROCLOR 1254, Method: STANDARD PLATE inactive; negative | Test System: AMES SALMONELLA TYPHIMURIUM, Strain/Indicator: TA1537, Metabolic Activation: NONE, Method: PREINCUBATION inactive; negative | [6] inactive; negative | Test System: AMES SALMONELLA TYPHIMURIUM, Strain/Indicator: TA1537, Metabolic Activation: RAT LIVER S-9, PHENOBARBITAL AND BETA-NAPHTHOFLAVONE, Method: PREINCUBATION inactive; negative | [7] inactive; negative | Test System: AMES SALMONELLA TYPHIMURIUM, Strain/Indicator: TA1538, Metabolic Activation: HAMSTER, LIVER, S-9, AROCLOR 1254, Method: STANDARD PLATE inactive; negative | Test System: AMES SALMONELLA TYPHIMURIUM, Strain/Indicator: TA1538, Metabolic Activation: NONE, Method: PREINCUBATION inactive; negative | [8] inactive; negative | Test System: AMES SALMONELLA TYPHIMURIUM, Strain/Indicator: TA1538, Metabolic Activation: RAT LIVER S-9, PHENOBARBITAL AND BETA-NAPHTHOFLAVONE, Method: PREINCUBATION inactive; negative | [9] inactive; negative | Test System: E. COLI, Strain/Indicator: WP2UVRA/PKM101, Metabolic Activation: RAT LIVER S-9, PHENOBARBITAL AND BETA-NAPHTHOFLAVONE, Method: PREINCUBATION inactive; negative | Test System: E. COLI, Strain/Indicator: WP2UVRA, Metabolic Activation: NONE, Method: PREINCUBATION inactive; negative | Test System: E. COLI, Strain/Indicator: WP2UVRA, Metabolic Activation: RAT LIVER S-9, PHENOBARBITAL AND BETA-NAPHTHOFLAVONE, Method: PREINCUBATION inactive; negative | Test System: E.COLI, Strain/Indicator: WP2UVRA/PKM101, Metabolic Activation: NONE, Method: PREINCUBATION inactive; negative | Test System: Mouse lymphoma, Strain/Indicator: L5178Y (tk+/tk-), Metabolic Activation: None, Method: Suspension/plate inactive; negative | Test System: Mouse lymphoma, Strain/Indicator: L5178Y (tk+/tk-), Metabolic Activation: Rat, Liver, S-9, Aroclor 1254, Method: Suspension/plate inactive; negative

Cc1ccc2c(c1Nc1ccccc1)C(=O)c1ccccc1C2=O
active: [3] active; positive
inactive: [1] inactive; negative | [2] inactive; negative | [4] inactive; negative | [5] inactive; negative | [6] inactive; negative | [7] inactive; negative | [8] inactive; negative | [9] inactive; negative

C=C(C)C1CC=C(C=O)CC1 (stereo not given)
inactive: End Point: IN VIVO MICRONUCLEUS, Test System: BONE MARROW POLYCHROMATIC ERYTHROCYTES, Species: MOUSE, Strain/Sex: DDY/MALE, Route: IP inactive; negative
